Test system: VSV particles pseudotyped with EboV GP on CHO cells overexpressing NPC1
Format: cell-based, Chinese hamster

SMILES | effect of NPC1 overexpression on antiviral activity
O=C(CC12CC3CC(CC(C3)C1)C2)NCC(=O)N1CCN(Cc2ccccc2)CC1 [3.0, 2-((3r,5r,7r)-adamantan-1-yl)-N-(2-(4-benzylpiperazin-1-yl)-2-oxoethyl)acetamide] | conferred resistance
COC(=O)c1ccc(COc2ccccc2CN2CCN(C(=O)CNC(=O)CC34CC5CC(CC(C5)C3)C4)CC2)cc1 [compound 3.48, methyl 4-((2-((4-(2-(2-((3r,5r,7r)-adamantan-1-yl)acetamido)acetyl)piperazin-1-yl)methyl)phenoxy)methyl)benzoate] | conferred resistance

Reference: patent publication US9452992B2 (priority 2011, dated 2016)
